Laboratory results as given in ChEMBL document CHEMBL1133078, “Isoxazolines and isoxazoles as factor Xa inhibitors” (Bioorg Med Chem Lett, 2000).

Columns and labels:
Prothrombin = Prothrombin (Homo sapiens, UniProt P00734); assay: Inhibitory activity against thrombin
Coagulation factor X [1] = biological target: Coagulation factor X (Homo sapiens, UniProt P00742); assay: Inhibition of human Coagulation factor X
Serine protease 1 = biological target: T1, Serine protease 1 (Bos taurus, UniProt P00760); assay: Inhibitory activity against trypsin
T1 sequence (P00760 whole entry): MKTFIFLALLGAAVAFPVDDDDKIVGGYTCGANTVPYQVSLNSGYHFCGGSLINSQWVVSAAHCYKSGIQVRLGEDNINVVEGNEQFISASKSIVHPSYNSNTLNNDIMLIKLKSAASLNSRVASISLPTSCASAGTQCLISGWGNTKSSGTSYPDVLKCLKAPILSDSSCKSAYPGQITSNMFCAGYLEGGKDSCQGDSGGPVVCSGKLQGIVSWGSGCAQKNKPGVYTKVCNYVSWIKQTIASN

[2] = Half-life after intravenous administration of 1 mg/kg/h in dog; type: ADME, organism-based, Canis lupus familiaris; set-up: route intravenous; settings: in vivo
[3] = Clearance value of compound was determined after intravenous administration of 1 mg/kg/h in dog; type: ADME, organism-based, Canis lupus familiaris; set-up: route intravenous; settings: in vivo
Oryctolagus cuniculus = organism: Oryctolagus cuniculus; assay: Concentration required to diminish the clot size by 50% in rabbit A-V shunt model of thrombosis; type: functional
Coagulation factor X [4] = biological target: T2, Coagulation factor X (Oryctolagus cuniculus, UniProt O19045); assay: Inhibitory activity against rabbit Coagulation factor X
T2 sequence (O19045 whole entry): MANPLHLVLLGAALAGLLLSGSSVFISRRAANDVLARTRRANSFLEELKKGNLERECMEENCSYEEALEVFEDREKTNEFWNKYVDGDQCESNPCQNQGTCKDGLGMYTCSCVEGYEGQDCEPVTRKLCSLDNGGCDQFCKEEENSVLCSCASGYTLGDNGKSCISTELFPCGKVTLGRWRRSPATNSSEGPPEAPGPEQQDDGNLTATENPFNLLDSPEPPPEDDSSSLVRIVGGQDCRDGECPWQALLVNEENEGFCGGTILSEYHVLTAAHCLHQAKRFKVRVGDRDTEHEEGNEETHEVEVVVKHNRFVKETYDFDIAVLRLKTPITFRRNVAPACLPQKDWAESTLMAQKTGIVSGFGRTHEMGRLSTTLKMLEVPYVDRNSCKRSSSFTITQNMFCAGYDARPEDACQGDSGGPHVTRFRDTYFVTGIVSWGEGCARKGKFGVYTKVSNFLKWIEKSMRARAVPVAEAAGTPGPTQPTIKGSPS

Canis familiaris = assay: Volume of distribution after intravenous administration of 1 mg/kg/h in dog; type: ADME, organism-based, Canis lupus familiaris; set-up: route intravenous; settings: in vivo
[5] = Volume of distribution after intravenous administration of 1 mg/kg/h in dog; settings: in vivo

Chain of Coagulation factor X (Homo sapiens, UniProt P00742) (P00742 41-179 limits assumed): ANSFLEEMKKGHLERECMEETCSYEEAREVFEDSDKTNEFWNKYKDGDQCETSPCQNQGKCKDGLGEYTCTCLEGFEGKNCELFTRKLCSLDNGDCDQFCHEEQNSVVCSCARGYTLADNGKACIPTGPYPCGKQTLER
Chain of Coagulation factor X (Homo sapiens, UniProt P00742) (P00742 235-488 limits assumed): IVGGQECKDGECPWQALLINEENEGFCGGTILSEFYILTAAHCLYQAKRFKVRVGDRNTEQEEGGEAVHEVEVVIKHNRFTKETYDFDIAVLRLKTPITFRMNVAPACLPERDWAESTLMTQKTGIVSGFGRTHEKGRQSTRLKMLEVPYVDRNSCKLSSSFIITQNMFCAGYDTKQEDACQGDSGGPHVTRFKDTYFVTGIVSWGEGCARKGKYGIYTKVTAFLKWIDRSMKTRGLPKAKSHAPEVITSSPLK

Compound	Ki (Prothrombin) [nM]	Ki (Coagulation factor X [1]) [nM]	Ki (Serine protease 1) [nM]	half-life [2] [h]	clearance [3] [mL/min/kg]	Ki (Coagulation factor X [4]) [nM]	Vdss (Canis familiaris) [L/kg]	Vdss [5] [L/kg]	ID50 (Oryctolagus cuniculus) [µM/h/kg]
C[C@H]1ON=C(c2cccc(C(=N)N)c2)[C@@H]1C(=O)Nc1ccc(-c2ccccc2S(N)(=O)=O)cc1	4500	1.8	110	–	–	–	–	–	–
N=C(N)c1cccc(C2=NOC(Cn3cnnn3)(C(=O)Nc3ccc(-c4ccccc4S(N)(=O)=O)cc3)C2)c1 (stereo not drawn)	–	–	91	–	–	–	–	–	–
N=C(N)c1cccc(-c2noc(C(F)(F)F)c2C(=O)Nc2ccc(-c3ccccc3S(N)(=O)=O)cc2)c1	11000	9.5	400	–	–	–	–	–	–
COCc1onc(-c2cccc(C(=N)N)c2)c1C(=O)Nc1ccc(-c2ccccc2S(N)(=O)=O)cn1	12000	–	200	–	–	–	–	–	–
COCc1onc(-c2cccc(C(=N)N)c2)c1C(=O)Nc1ccc(-c2ccccc2S(N)(=O)=O)cc1	3800	0.63	76	1.2	28.3	–	0.85	–	–
COC[C@H]1ON=C(c2cccc(C(=N)N)c2)[C@@H]1C(=O)Nc1ccc(-c2ccccc2S(N)(=O)=O)cc1	4600	–	190	1.2	16.5	0.64	–	0.38	0.21
CC1(C(=O)Nc2ccc(-c3ccccc3S(N)(=O)=O)cc2)CC(c2cccc(C(=N)N)c2)=NO1 (stereo not drawn)	–	–	120	–	–	–	–	–	–
N=C(N)c1cccc(C2=NO[C@H](Cn3cnnn3)[C@H]2C(=O)Nc2ccc(-c3ccccc3S(N)(=O)=O)cc2)c1	5700	2.3	180	1	8.17	–	0.24	–	–
N=C(N)c1cccc(-c2noc(N)c2C(=O)Nc2ccc(-c3ccccc3S(N)(=O)=O)cc2)c1	4000	3.4	117	–	–	–	–	–	–

The next compounds have a lower Ki (Serine protease 1) than those just listed; values first:

Ki (Prothrombin) [nM]	Ki (Coagulation factor X [1]) [nM]	Ki (Serine protease 1) [nM]	half-life [2] [h]	clearance [3] [mL/min/kg]	Ki (Coagulation factor X [4]) [nM]	Vdss (Canis familiaris) [L/kg]	Vdss [5] [L/kg]	Compound	ID50 (Oryctolagus cuniculus) [µM/h/kg]
1900	0.5	50	–	–	–	–	–	N=C(N)c1cccc(-c2noc(CO)c2C(=O)Nc2ccc(-c3ccccc3S(N)(=O)=O)cc2)c1	–
540	0.1	25	–	–	–	–	–	CS(=O)(=O)c1ccccc1-c1ccc(NC(=O)c2conc2-c2cccc(C(=N)N)c2)cc1	–
2000	–	21	4.3	25	0.4	1.7	–	N=C(N)c1cccc(-c2nocc2C(=O)Nc2ccc(-c3ccccc3S(N)(=O)=O)cc2)c1	0.31
–	–	70	–	–	0.8	–	–	COCC1(C(=O)Nc2ccc(-c3ccccc3S(N)(=O)=O)cc2)CC(c2cccc(C(=N)N)c2)=NO1 (stereo not drawn)	0.26
